Data set [1] deals with Candida albicans (ATCC 10231). The data set is described as follows: Spectrum of activity, OD570 after 48 h. The format is cell-based. Particulars: ATCC10231, read-out: MIC90 (antimicrobial activity). Here is the method:
(§1) Determination of Minimal Inhibitory Concentration (MIC90) Against Bacteria in Dormant […]
(§2) The selective compounds (SI ≥ 10) were tested against the mycobacterium in a dormant state. The cultures were thawed, diluted in Middlebrook 7H12 broth, and sonicated for 5 s. The cultures were diluted to obtain the concentration between […] and 2 × 10^6 CFU/mL. TwoHfold serial dilutions of the compounds were prepared in a volume of […] in white 96Hwell microtiter plates, followed by the addition of […] of the cell suspension. The microplate cultures were placed under anaerobic conditions (oxygen concentration less than 0.16%) by using an Anoxomat model WS8080 (MART Microbiology) followed by two cycles of evacuation and filling with a mixture of 10% hydrogen (H2), 5% carbon dioxide (CO2), and the balance with nitrogen (N2). An anaerobic indicator strip was placed inside the chamber to visually confirm the removal of oxygen. The plates were incubated at 37°C for 10 days and then transferred to an ambient gaseous condition (5% CO2H enriched air) incubator for a 28 h “recovery.” On day 11 (after the 28Hh aerobic recovery), we determined the luminescence and calculated the MIC90.4
(§3) To establish the spectrum activity, we determined the MIC90 against E. coli (ATCC 25922) and S. aureus (ATCC 29213) by measuring the optical density at 570 nm after 16 h of incubation in Mueller–Hinton II broth (Becton Dickinson, Sparks; Maryland, United States) and against C. albicans (ATCC 10231) at OD570 after 48 h in Cellgro RPMI 1640 medium (Mediatech Inc., Manassas, Virginia, United States). The MIC was defined as the lowest concentration resulting in 90% reduction in absorption relative to that of untreated control cultures.
(§4) Determination of Minimal Inhibitory Concentration Against Isogenic Monoresistant Strains

The subject of data set [2] is Escherichia coli (ATCC 25922). The data set is described as follows: Spectrum of activity, OD570 after 16 h. The format is cell-based. As to conditions: ATCC25922, read-out: MIC90 (antimicrobial activity). Here is the method:
as §1, §2, §3, §4

Data set [3] relates to Staphylococcus aureus (ATCC 29213). The data set is described as follows: Spectrum of activity, OD570 after 16 h. Particulars: ATCC29213, read-out: MIC90 (antimicrobial activity). The data set is classed as cell-based. Here is the method:
as §1, §2, §3, §4

The test system of data set [4] is Mtb H37Rv (ATCC 27294). The data set is described as follows: Resazurin microtiter assay (REMA), MIC90 against bacteria in active state. The data set is classed as cell-based. As to conditions: Mycobacterium tuberculosis, actively replicating M. tuberculosis H37Rv, REMA; for MIC90: read-out: MIC90. A general note: Alamar Blue is a resazurin reagent that responds to reducing activity.

Data set [5] in a line: Cytotoxicity against MRC-5 cell line. As to conditions: human, cytotoxicity IC50, MRC-5 cell line.
The subject of data set [6] is dormant M. tuberculosis H37Rv. The data set is described as follows: microbe, parasite or virus in culture. The data set is classed as cell-based. As to conditions: Mycobacterium tuberculosis, dormant (nonreplicating) M. tuberculosis H37Rv.
The test system of data set [7] is MRC-5 human lung fibroblast cell line. Details: method as in PMID 27508879. As to conditions: cited from earlier work.
For data set [8], the system named is Mtb H37Rv (ATCC 27294). Further details: method as in PMID 27508879. As to conditions: cited from earlier work.

SMILES strings stand for the structures. In brackets after ≈: the same amount, converted by molar mass. Several values for one entry are separate records, joined by “and”; a condition that tells them apart may be missing. Identical values can stand only once. Like-named read-outs stand apart in the source and are kept apart here.

As for `O=C(N/N=C/c1ccc2no[n+]([O-])c2c1)c1ccc(O)cc1` [Compound 14, (E)-6-((2-(4-Hydroxybenzoyl)hydrazono)methyl)benzo[c][1,2,5]oxadiazole 1-Oxide], the MIC90 in data set [1] was above 200 µM; in data set [2], above 200 µM; in data set [3] it was above 200 µM; in the data set with Mtb H37Rv (ATCC 27294) [4], above 25 µg/mL.
What is called IC50 is the concentration that inhibits the measured activity by half. Regarding `N#Cc1c(-c2cccs2)[n+]([O-])c2ccc(C3OCCO3)cc2[n+]1[O-]` [Compound 26, 3-Cyano-6-(1,3-dioxolan-2-yl)-2-(thiophen-2-yl)quinoxaline 1,4-Dioxide], the IC50 in data set [5] is 5.9 µg/mL (≈ 17.3 µM). Besides, the MIC90 in the data set with Mtb H37Rv (ATCC 27294) [4] worked out at 4.1 µg/mL (≈ 12 µM).
In turn, `NC(=O)c1c(COc2cccc(/C=N/NC(=O)c3ccncc3)c2)no[n+]1[O-]` [Compound 4b, (E)-3-Carbamoyl-4-((3-((2-isonicotinoylhydrazono)methyl)phenoxy)methyl)-1,2,5-oxadiazole 2-Oxide] displayed a half-inhibitory concentration (IC50) in data set [5] of 490 µg/mL (≈ 1280 µM). The MIC90 is 1.6 µg/mL (≈ 4.18 µM) in data set [6] and 0.15 µg/mL (≈ 0.392 µM) in the data set on Mtb H37Rv (ATCC 27294) [4].
The compound `NC(=O)c1c(COc2ccccc2/C=N/NC(=O)c2ccncc2)no[n+]1[O-]` [Compound 4a, (E)-3-Carbamoyl-4-((2-((2-isonicotinoylhydrazono)methyl)phenoxy)methyl)-1,2,5-oxadiazole 2-Oxide] came in with a concentration for half-maximal inhibition (IC50) in data set [5] of 327 µg/mL (≈ 854 µM). Besides, the MIC90 came to 2.95 µg/mL (≈ 7.72 µM) in data set [6] and 0.16 µg/mL (≈ 0.418 µM) with Mtb H37Rv (ATCC 27294) [4].
For `O=C(N/N=C/c1ccc(Oc2no[n+]([O-])c2S(=O)(=O)c2ccccc2)cc1)c1ccncc1` [(E)-4-(4-((2-isonicotinoylhydrazono)methyl)phenoxy)-3-(phenylsulfonyl)-1,2,5-oxadiazole 2-oxide], the half-inhibitory concentration (IC50) in data set [7] is 43 µM. In addition, the MIC90 in the data set on Mtb H37Rv (ATCC 27294) [8] was 1 µM and 1.0 µM.
In the case of `N#Cc1c(-c2ccccc2)[n+]([O-])c2ccc(C3OCCO3)cc2[n+]1[O-]` [Compound 19], the concentration for half-maximal inhibition (IC50) in data set [5] was 10.7 µg/mL (≈ 31.9 µM). In the data set on Mtb H37Rv (ATCC 27294) [4], the MIC90 was 10.3 µg/mL (≈ 30.7 µM).
Consider `N#Cc1c(-c2ccc(Cl)cc2)[n+]([O-])c2ccc(C3OCCO3)cc2[n+]1[O-]` [Compound 21, 2-(4-Chlorophenyl)-3-cyano-6-(1,3-dioxolan-2-yl)quinoxaline 1,4-Dioxide], for which the half-maximal inhibitory concentration (IC50) in data set [5] came to 5 µg/mL (≈ 13.5 µM). The MIC90 with Mtb H37Rv (ATCC 27294) [4] was 6.4 µg/mL (≈ 17.3 µM).
As a reminder, the MIC is the smallest concentration in the dilution series that meets the test's criterion for growth inhibition. Low readings indicate a more susceptible organism, high ones a less susceptible organism. In the case of `O=C(N/N=C/c1ccc2no[n+]([O-])c2c1)c1ccc([N+](=O)[O-])cc1` [Compound 11, (E)-6-((2-(4-Nitrobenzoyl)hydrazono)methyl)benzo[c][1,2,5]oxadiazole 1-Oxide], the MIC90 is above 200 µM in data set [1], above 200 µM in data set [2], above 200 µM in data set [3] and 1.73 µg/mL (≈ 5.29 µM) in the data set on Mtb H37Rv (ATCC 27294) [4]. The compound further showed a minimal inhibitory concentration (MIC) in the data set with Mtb H37Rv (ATCC 27294) [4] above 62 µM.
In data set [5], `COc1ccc(-c2c(C#N)[n+]([O-])c3cc(C4OCCO4)ccc3[n+]2[O-])cc1` [Compound 22, 3-Cyano-6-(1,3-dioxolan-2-yl)-2-(4-methoxyphenyl)quinoxaline 1,4-Dioxide] yielded a half-maximal inhibitory concentration (IC50) of 5.5 µg/mL (≈ 15.1 µM). In the data set on Mtb H37Rv (ATCC 27294) [4], the MIC90 worked out at 4.4 µg/mL (≈ 12 µM).
On to `N#Cc1c(-c2ccco2)[n+]([O-])c2ccc(C3OCCO3)cc2[n+]1[O-]` [Compound 25, 3-Cyano-6-(1,3-dioxolan-2-yl)-2-(furan-2-yl)quinoxaline 1,4-Dioxide], for which the IC50 in data set [5] was 11.6 µg/mL (≈ 35.7 µM). Moreover, in the data set with Mtb H37Rv (ATCC 27294) [4], the MIC90 was found to be 1.7 µg/mL (≈ 5.23 µM).
`N#Cc1c(-c2ccc(F)cc2)[n+]([O-])c2ccc(C3OCCO3)cc2[n+]1[O-]` [Compound 23, 3-Cyano-6-(1,3-dioxolan-2-yl)-2-(4-fluorophenyl)quinoxaline 1,4-Dioxide]: in data set [5], the IC50 was found to be 7.7 µg/mL (≈ 21.8 µM). Also, the MIC90 with Mtb H37Rv (ATCC 27294) [4] was 8.6 µg/mL (≈ 24.3 µM).
For the compound `Nc1ccc(C(=O)N/N=C/c2ccc3no[n+]([O-])c3c2)cc1` [Compound 17, (E)-6-((2-(4-Aminobenzoyl)hydrazono)methyl)benzo[c][1,2,5]oxadiazole 1-Oxide], the IC50 in data set [5] came out at 250 µg/mL (≈ 841 µM). The MIC90 is above 200 µM in data set [1], above 200 µM in data set [2], above 200 µM in data set [3] and 3.16 µg/mL (≈ 10.6 µM) in the data set with Mtb H37Rv (ATCC 27294) [4].
In data set [5], `CC(C)(C)c1ccc(C(=O)N/N=C/c2ccc3no[n+]([O-])c3c2)cc1` [Compound 10, (E)-6-((2-(4-(tert-Butyl)benzoyl)hydrazono)methyl)benzo[c][1,2,5]oxadiazole 1-Oxide] displayed an IC50 of 8.5 µg/mL (≈ 25.1 µM). The MIC90 with Mtb H37Rv (ATCC 27294) [4] was found to be 1.3 µg/mL (≈ 3.84 µM).
For `NNC(=O)c1ccncc1` [isoniazid, reference compound], in the data set on Mtb H37Rv (ATCC 27294) [4], the MIC90 worked out at 0.014 µg/mL (≈ 0.102 µM).
With `O=C(N/N=C/c1ccc2no[n+]([O-])c2c1)c1cccc(O)c1` [Compound 13, (E)-6-((2-(3-Hydroxybenzoyl)hydrazono)methyl)benzo[c][1,2,5]oxadiazole 1-Oxide], the MIC90 in the data set on Mtb H37Rv (ATCC 27294) [4] is above 25 µg/mL.
Regarding `O=C(N/N=C/c1ccc2no[n+]([O-])c2c1)c1ccccc1` [Compound 9, (E)-6-((2-Benzoylhydrazono)methyl)benzo[c][1,2,5]oxadiazole 1-Oxide], the IC50 in data set [5] stood at 36.8 µg/mL (≈ 130 µM). In addition, the MIC90 in the data set with Mtb H37Rv (ATCC 27294) [4] was 2.4 µg/mL (≈ 8.5 µM).
For `Nc1cccc(C(=O)N/N=C/c2ccc3no[n+]([O-])c3c2)c1` [Compound 16, (E)-6-((2-(3-Aminobenzoyl)hydrazono)methyl)benzo[c][1,2,5]oxadiazole 1-Oxide], the 50% inhibitory concentration (IC50) in data set [5] is 24.4 µg/mL (≈ 82.1 µM). The MIC90 in the data set on Mtb H37Rv (ATCC 27294) [4] came out at 5.3 µg/mL (≈ 17.8 µM).
Compound `Cc1ccc(-c2c(C#N)[n+]([O-])c3cc(C4OCCO4)ccc3[n+]2[O-])cc1` [Compound 20, 3-Cyano-6-(1,3-dioxolan-2-yl)-2-(p-tolyl)quinoxaline 1,4-Dioxide] came in with an IC50 in data set [5] of 6.2 µg/mL (≈ 17.7 µM). Moreover, the MIC90 with Mtb H37Rv (ATCC 27294) [4] amounted to 5.7 µg/mL (≈ 16.3 µM).
`N#Cc1c(-c2ccccc2)[n+]([O-])c2ccc(/C=N/NC(=O)c3ccncc3)cc2[n+]1[O-]` [Compound 28] yielded a half-maximal inhibitory concentration (IC50) in data set [5] of 8.6 µg/mL (≈ 21 µM). The MIC90 in the data set on Mtb H37Rv (ATCC 27294) [4] was 16.3 µg/mL (≈ 39.7 µM).
`NC(=O)c1c(COc2ccc(/C=N/NC(=O)c3ccncc3)cc2)no[n+]1[O-]` [Compound 4c, (E)-3-Carbamoyl-4-((4-((2-isonicotinoylhydrazono)methyl)phenoxy)methyl)-1,2,5-oxadiazole 2-Oxide] came in with a concentration for half-maximal inhibition (IC50) in data set [5] of 443 µg/mL (≈ 1160 µM). Further, the values for the MIC90 (in data set [6]; in the data set with Mtb H37Rv (ATCC 27294) [4]) were 0.78 µg/mL (≈ 2.04 µM) and 0.16 µg/mL (≈ 0.418 µM), respectively.
In turn, `Nc1ccccc1C(=O)N/N=C/c1ccc2no[n+]([O-])c2c1` [Compound 15, (E)-6-((2-(2-Aminobenzoyl)hydrazono)methyl)benzo[c][1,2,5]oxadiazole 1-Oxide] registered a half-maximal inhibitory concentration (IC50) in data set [5] of 36.4 µg/mL (≈ 122 µM). Moreover, the MIC90 in the data set with Mtb H37Rv (ATCC 27294) [4] was 3.7 µg/mL (≈ 12.4 µM).
For the compound `N#Cc1c(-c2ccc(OC(F)(F)F)cc2)[n+]([O-])c2ccc(C3OCCO3)cc2[n+]1[O-]` [Compound 24, 3-Cyano-6-(1,3-dioxolan-2-yl)-2-(4-(trifluoromethoxy)phenyl)quinoxaline 1,4-Dioxide], in data set [5], half-maximal inhibition (IC50) was put at 28 µg/mL (≈ 66.8 µM). For the same compound, in the data set on Mtb H37Rv (ATCC 27294) [4], the MIC90 stood at 6.5 µg/mL (≈ 15.5 µM).
Compound `O=C(N/N=C/c1ccc2no[n+]([O-])c2c1)c1ccccc1O` [Compound 12, (E)-6-((2-(2-Hydroxybenzoyl)hydrazono)methyl)benzo[c][1,2,5]oxadiazole 1-Oxide] yielded an MIC with Mtb H37Rv (ATCC 27294) [4] of 16.4 µg/mL.

Source of the values: paper PMC5677254, “Design, Synthesis, and Characterization of N-Oxide-Containing Heterocycles with in Vivo Sterilizing Antitubercular Activity” (Journal of Medicinal Chemistry, 2017).
